As for `COc1ccc2c(c1)c(CC(=O)NCC(C)(C)S)c(C)n2C(=O)c1ccc(Cl)cc1`, the melting point is 177 to 178 °C.

Molecule `COC(=O)NCc1cc(C(C)=NOCc2ccc(F)cc2)ccc1Cl` displayed a melting point of 101 to 103 °C.

In the case of `Oc1ccc2c(c1)CCCC(c1ccccc1)=C2c1ccc(OCCCCCSCCCC(F)(F)F)cc1`, the melting point stood at 168 °C.

Take `CCC(=O)Nc1nc2ccc(Cl)cc2n2c(CC)nnc12`: the melting point fell in the range of 212 to 215 °C.

The molecule `CCCCN=C1SC(=CC(=O)O)C(=O)N1CCCC` registered a melting point of 99 to 101 °C.

The molecule `CCCCN(CCCC)c1ccc(C=CC2=C(C#N)C(=C(C#N)C#N)OC2(c2ccccc2)C(F)(F)F)c(OC)c1` (centres undefined) displayed a melting point of 191 to 194 °C.

`Cc1ccc(N)cc1NC(=O)c1ccc(O)cc1`: the melting point was 277 to 278 °C.

The molecule `CS(=O)(=O)c1cc(C(=O)N=C(N)N)ccc1C(F)(F)F` displayed a melting point of 146 to 147 °C.

For the molecule `O=C(O)Cc1ccc(CO[N+](=O)[O-])cc1`, the melting point lay within 109 to 110 °C.

In the case of `O=C1NCc2cc(C(=O)c3ccccc3)ccc2N1`, the melting point was determined as 265 °C.

`Cc1cccc(C)c1N1CCN(CCNc2cnn(C)c(=O)c2Cl)CC1` yielded a melting point of 235 to 242 °C.

On to `COc1cc(-c2nc3cc(F)ccc3s2)ccc1OC(=O)c1cccc([N+](=O)[O-])c1`, for which the melting point is 190 °C.

In the case of `CNS(=O)(=O)c1sc(C)cc1CC(=O)O`, the melting point is 138 °C.

As for `CC1(C)CC(OC(=O)N=NC(=O)OC2CC(C)(C)N(OC3CCCCC3)C(C)(C)C2)CC(C)(C)N1OC1CCCCC1`, the melting point is 189 to 191 °C.

For the molecule `COc1ccc(CCNc2nccc(-c3cccc(NC(=O)CCCN4C=CC=NC4)c3)n2)cc1OC`, the melting point lay within 121 to 122 °C.

Regarding `N#Cc1cccc(OCCc2c[nH]cn2)c1`, the melting point fell in the range of 189 to 190 °C.

In the case of `CCCCN1C(=O)NC(CCC(=O)O)C1=O` (centres undefined), the melting point is 130 °C.

With `CSCc1nc(C)cc(O)n1`, the melting point amounted to 138 °C.

The molecule `Cc1ccc2c(c1)N(CC(=O)c1cccs1)C(=O)C(NC(=O)Nc1cccc(C(=O)O)c1)CN2C(=O)c1cccs1` (centres undefined) returned a melting point of more than 290 °C.

The molecule `CCOc1cc2c(c3c1OC(C)(C)C3)C(c1cccc(C(=O)NC)c1)=NC(C)(C)C2=O` displayed a melting point of 233 to 235 °C.

As to `CC(C)CN(CC(O)C(Cc1ccccc1)NC(=O)C(CC(N)=O)NC(=O)NCc1ccccc1)C(=O)NC(C)(C)C` (centres undefined), the melting point was 164 to 166 °C.

Consider `Cc1nccn1-c1cccc(Nc2ccc(I)cc2[N+](=O)[O-])c1`, for which the melting point lay within 135 to 136 °C.

As for `FC(F)(F)c1ccc2[nH]c(-c3csc(Cc4c(Cl)cccc4Cl)n3)nc2c1`, the melting point lay in the range of 187 to 189 °C.

`O=C(CCc1ccccc1)Nc1ccc(C(=O)NN=C2C(=O)Nc3ccc(I)cc32)cc1` showed a melting point of 297 °C.

For the molecule `COc1ccc(NC(N)=S)nc1`, the melting point fell in the range of 131 to 135 °C.

Molecule `Cc1nc2cc(C(c3cccc(Cl)c3)n3ccnc3)ccc2[nH]c1=O` (centres undefined) gave a melting point of 271 °C.

`COc1cc(C(=O)NS(=O)(=O)c2ccccc2)ccc1CN1CCOc2ccc(NC(=O)CC3CCCC3)cc21` came in with a melting point of 190 to 192 °C.

`COc1ccc(Cc2nnc(-c3ccc4occc4c3)o2)cc1` registered a melting point of 108 to 109 °C.

In turn, `Cc1oc(-c2ccccc2)nc1COc1ccccc1CCl` gave a melting point of 103 to 104 °C.

`CCOC(=O)c1cn(C2CC2)c2c(F)c(N3CCOC(CN(C)C)C3)c(F)cc2c1=O` (centres undefined): the melting point lay within 168 to 169 °C.

Regarding `CC(C)c1ccc([N+](=O)[O-])c(C(C)C)c1NC(=O)CN1CCN(CCSc2nc3cccc([N+](=O)[O-])c3o2)CC1`, the melting point was 70 to 72 °C.

Take `c1ccc(COC2CCN(Cc3cc4ccccc4[nH]3)CC2)cc1`: the melting point lay in the range of 103 to 105 °C.

`Cc1nc2ccccc2nc1S(=O)Cc1ccccc1N(C)C` (centres undefined) gave a melting point of 68 to 70 °C.

The molecule `COC(=O)N(C)n1c(C)nc(N2CCc3ccccc3CC2)c(C#N)c1=O` yielded a melting point of 120 to 122 °C.

Take `CC(=O)OCC1OC(OC2C(COC(C)=O)OC(Oc3ccc(N)cc3)C(OC(C)=O)C2OC(C)=O)C(OC(C)=O)C(OC(C)=O)C1OC(C)=O` (centres undefined): the melting point lay within 174 to 176 °C.

Turning to `CC(=O)CC(=O)c1cc(Cl)c(Cl)cc1O`, the melting point lay within 134 to 135 °C.

For the molecule `COc1cc2cc(-c3ccc(OCC(O)CNC(C)(C)C)cc3)n(C)c(=O)c2cc1OC` (centres undefined), the melting point was in the range of 165 to 166 °C.

`CSC(Oc1ccc2ncc(I)cc2c1)C(=O)NC(C)(C)C` (centres undefined) had a melting point of 165 to 166 °C.

Molecule `CC(C)C(=O)Oc1n[nH]c(=O)c2nc3cc(Cl)ccc3c(O)c12` registered a melting point of 328 to 335 °C.

`Cc1nnc(S(C)(=O)=O)o1` came in with a melting point of 70 to 71 °C.

The molecule `COc1ccc(OCC(O)CNC(C)(C)C)c(C2=NNC(=O)CC2)c1` (centres undefined) registered a melting point of 127 to 128 °C.

`N#CCOc1ccc(-c2ccccc2)cc1` had a melting point of 81 to 83 °C.

In turn, `CC(C)n1cc(C2(c3ccc(F)c(Br)c3)N=C(N)N(C)C2=O)cn1` (centres undefined) showed a melting point of 80 to 82 °C.

Regarding `CN(C)c1cccc(Oc2ccccc2N2CCN(CCCc3c[nH]c4ccccc34)CC2)c1`, the melting point was in the range of 156 to 162 °C.

`CC1CC(=O)NN=C1c1ccc(N2CCN(C#N)CC2)c([N+](=O)[O-])c1` (centres undefined): the melting point lay within 247 to 248 °C.

Consider `CC(C)N1CCC(N2CCN(CCN3CCCCC3)C2=C(C#N)C#N)CC1`, for which the melting point lay within 93 to 95 °C.

On to `N#Cc1c[nH]c2ccccc2c1=O`, for which the melting point fell in the range of 290 to 300 °C.

For `Cc1cccc(N2C(=S)SC(C)C2(C)O)n1` (centres undefined), the melting point is 129 °C.

Molecule `CNC(=O)NC(=O)N(C)c1ccccc1` gave a melting point of 123 to 125 °C.

Molecule `Clc1ccc(C#Cc2ccccc2)cn1` had a melting point of 70 to 72 °C.

Take `O=C(NCCc1cccc2ccc(OC3CCCCC3)cc12)C1CCC1`: the melting point is 116 to 118 °C.

`COC(=O)c1ccc(CN2N=C(C(C)(C)C)CC2=O)cc1` yielded a melting point of 161 to 162 °C.

Consider `c1cc2c3c(c1)NCC3CCC2` (centres undefined), for which the melting point lay within 58 to 59 °C.

As to `CC(=O)Nc1ccc(-n2nc(CCCCCC(=O)O)c3c2CCC3)cc1`, the melting point fell in the range of 149 to 150 °C.

The molecule `N#CCCNCCCC(=O)O` yielded a melting point of 122 to 124 °C.

`CC(C)[C@H](C[C@H](O)[C@H](C)NC(=O)OC(C)(C)C)C(=O)NCc1cccnc1` registered a melting point of 147 to 149 °C.

Turning to `CCCOCCOc1ccc(OCC(O)CNCCNC(N)=O)cc1` (centres undefined), the melting point was found to be 115 °C.

For `CC(O)=C(C(=O)OC(c1ccccc1)c1ccccc1)N1C(=O)C(NC(=O)COc2ccccc2)C1SS(=O)(=O)c1ccc(C)cc1` (centres undefined), the melting point was 150 to 152 °C.

Molecule `COc1ccc(Oc2cccc3ncnc(NC(=O)Nc4ccccc4)c23)cc1` had a melting point of 231 to 232 °C.

`COc1ccc(Sc2ccc([N+](=O)[O-])cc2)c(Cl)c1Cl` showed a melting point of 236 to 237 °C.

`O=C1c2ccccc2C(=O)N1CCCCCCc1cccnc1`: the melting point is 90 to 92 °C.

`COC(=O)c1ccc(F)cc1C#N` registered a melting point of 92 to 93 °C.

Molecule `CCOC(=O)C(=CNc1ccnc(-c2ccncc2)n1)C(=O)OCC` yielded a melting point of 143 to 145 °C.

`CN1CCN(c2cccc3c2C[C@H](NC(=O)CCc2ccccc2)CC3)CC1`: the melting point lay in the range of 184 to 186 °C.

Molecule `CS(=O)(=O)c1ccc(-c2[nH]c(Cl)cc2-c2ccc(F)cc2)cc1` came in with a melting point of 206 to 208 °C.

The molecule `CSc1ccccc1C1CCN(CCCCNC(=O)c2ccc(-c3ccc(C(F)(F)F)cc3)cc2)CC1` gave a melting point of 191 to 192 °C.

Take `CC(=O)c1cccc2ccc(CS(=O)(=O)N3CCOCC3)cc12`: the melting point amounted to 162 °C.

Consider `O=C(Nc1cccc(C2CN3CCSC3=N2)c1)c1ccc(Br)nc1` (centres undefined), for which the melting point is 149 to 153 °C.

For the molecule `CN1CCC(c2ccccc2)(C(C)(C)O)CC1`, the melting point fell in the range of 146 to 147 °C.

In the case of `Clc1nc2cc(Cl)c(Cl)c(Cl)c2[nH]1`, the melting point lay within 243 to 244 °C.

Molecule `O=C(O)C1CSC(C2CC3C=CC2C3)N1` (mixture of isomers) returned a melting point of 220 °C.

On to `CCC1CC(=O)N(Cc2ccc(NC(C)=O)cc2)N=C1c1ccc(OC)c(OC)c1` (centres undefined), for which the melting point was 133 °C.

In turn, `CCN(CC)CCC(=O)Nc1ccc([N+](=O)[O-])cc1` yielded a melting point of 86 to 88 °C.

Molecule `CCN1C(=O)c2ccc(C(F)(F)F)cc2S(=O)(=O)c2ccccc21` had a melting point of 145 to 146 °C.

The molecule `COCCOc1ccc(CCC(=O)NS(N)(=O)=O)c(Oc2ncc(C(F)(F)F)cc2Cl)c1` displayed a melting point of 158 to 159 °C.

`CN(C)CCC1=Cc2ccc(NC(=O)c3ccc(-c4ccccc4)cc3)cc2CC1` registered a melting point of 148 to 150 °C.

Take `COc1nc(NCS(=O)(=O)c2ccc(C)cc2)nc(N(C)C)n1`: the melting point was 188 to 190 °C.

In turn, `O=S1(=O)CCN2C=CC=C(c3ccc(Oc4ccccc4)cc3)C2=N1` returned a melting point of 251 to 252 °C.

Take `CCN(CC)c1nc(N)c2ccccc2n1`: the melting point was in the range of 125 to 128 °C.

Turning to `NC(=O)c1ccccc1C(=O)NCCCN1CCC(c2noc3cc(F)ccc23)CC1`, the melting point lay within 129 to 130 °C.

With `N#CCC(CC#N)c1ccccc1Br`, the melting point lay in the range of 94 to 96 °C.

Regarding `C[C@@H]1[C@H](c2ccccc2)OC(=O)N1C(=O)CCC(F)(F)F`, the melting point fell in the range of 93 to 95 °C.

As to `CN(CCCN1C(=O)CSC1c1cc(C(C)(C)C)c(O)c(C(C)(C)C)c1)CCOc1ccc2c(c1)OCO2` (centres undefined), the melting point was in the range of 70 to 71 °C.

Take `O=[N+]([O-])c1ccc(OCc2ccccn2)cc1`: the melting point lay in the range of 116 to 117 °C.

The molecule `COc1ccc2c(c1)Cc1cc(CC(=O)O)ccc1-2` yielded a melting point of 200 to 202 °C.

`COc1cc(-c2ccc(C(C)(C)C)s2)cc2oc(=O)c(C)c(C)c12` gave a melting point of 137 °C.

`COC1CC2(C)C(CCC3C4CC=C(C(C)=O)C4(C)CC(=O)C32)CC1O` (centres undefined): the melting point was in the range of 159 to 163 °C.

`O=C1NCCCN1C1CCN(CC[C@H](c2ccc(Cl)c(Cl)c2)[C@@H](O)c2ccnn2-c2ccccc2)CC1` (racemic) displayed a melting point of 174 to 176 °C.

In turn, `CCOC(=O)Nc1cccc(Nc2c3cccc(C)c3nc3c(C(=O)NCCN(C)C)cccc23)c1C` gave a melting point of 182 to 183 °C.

By melting point is commonly meant the temperature of the solid-liquid transition.

For the origin of these results see a melting point compilation (Tetko et al.; mined from patent text by program, amines drawn as free bases though some values may be those of a salt).
